Data from patent publication US20230365537A1, “POLO LIKE KINASE 4 INHIBITORS” (ORIC Pharmaceuticals, Inc., priority 2021, published 2023).
Each block holds one compound with its values, some of them ahead of it.

Key:
human recombinant PLK4 = human recombinant PLK4 (Homo sapiens (Human), UniProt O00444); test: PLK4 Biochemical Assay (ADP-Glo); conditions: 0.5 nM PLK4, 8.0 µM ATP, 4.7 µM MBP, 6 hours at RT
Outline: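 Luminescent ADP-Glo detection quantified ADP production, with ATP depletion for 40 min and detection for 30 min at room temperature. Compound and PLK4 (1.0 nM stock addition) were preincubated 15 min in HEPES pH 7.5 buffer containing MgCl2, EGTA, DTT, Brij-35 and BSA. IC50 values were obtained by four-parameter nonlinear regression.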

[1] = target: human recombinant Aurora A (Homo sapiens (Human), UniProt O14965); test: Aurora A Kinase Biochemical Assay (ADP-Glo); conditions: ratio of Aurora A IC50 to PLK4 IC50 (selectivity)
[2] = target: human recombinant Aurora B (Homo sapiens (Human), UniProt Q96GD4); test: Aurora B Kinase Biochemical Assay (ADP-Glo); conditions: ratio of Aurora B IC50 to PLK4 IC50 (selectivity)
Outline: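 IC50 derived by four-parameter nonlinear fit of ADP-Glo luminescence (ADP produced). Compound was preincubated 15 min at RT with 20 nM recombinant human Aurora B, in 50 mM HEPES pH 7.5, 10 mM MgCl2, 1 mM EGTA, 1 mM DTT, 0.01% Brij-35/BSA.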

human recombinant Aurora B, sequence (Q96GD4 whole entry): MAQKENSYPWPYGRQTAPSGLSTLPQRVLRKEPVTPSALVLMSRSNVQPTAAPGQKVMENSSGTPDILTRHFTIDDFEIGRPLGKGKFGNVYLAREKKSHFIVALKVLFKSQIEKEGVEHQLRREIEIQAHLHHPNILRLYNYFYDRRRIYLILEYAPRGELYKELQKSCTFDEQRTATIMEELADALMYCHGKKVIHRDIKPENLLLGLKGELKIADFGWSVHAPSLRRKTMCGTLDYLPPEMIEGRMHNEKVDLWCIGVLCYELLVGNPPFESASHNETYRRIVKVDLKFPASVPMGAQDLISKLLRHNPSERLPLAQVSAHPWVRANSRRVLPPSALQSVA
human recombinant PLK4, sequence (O00444 whole entry): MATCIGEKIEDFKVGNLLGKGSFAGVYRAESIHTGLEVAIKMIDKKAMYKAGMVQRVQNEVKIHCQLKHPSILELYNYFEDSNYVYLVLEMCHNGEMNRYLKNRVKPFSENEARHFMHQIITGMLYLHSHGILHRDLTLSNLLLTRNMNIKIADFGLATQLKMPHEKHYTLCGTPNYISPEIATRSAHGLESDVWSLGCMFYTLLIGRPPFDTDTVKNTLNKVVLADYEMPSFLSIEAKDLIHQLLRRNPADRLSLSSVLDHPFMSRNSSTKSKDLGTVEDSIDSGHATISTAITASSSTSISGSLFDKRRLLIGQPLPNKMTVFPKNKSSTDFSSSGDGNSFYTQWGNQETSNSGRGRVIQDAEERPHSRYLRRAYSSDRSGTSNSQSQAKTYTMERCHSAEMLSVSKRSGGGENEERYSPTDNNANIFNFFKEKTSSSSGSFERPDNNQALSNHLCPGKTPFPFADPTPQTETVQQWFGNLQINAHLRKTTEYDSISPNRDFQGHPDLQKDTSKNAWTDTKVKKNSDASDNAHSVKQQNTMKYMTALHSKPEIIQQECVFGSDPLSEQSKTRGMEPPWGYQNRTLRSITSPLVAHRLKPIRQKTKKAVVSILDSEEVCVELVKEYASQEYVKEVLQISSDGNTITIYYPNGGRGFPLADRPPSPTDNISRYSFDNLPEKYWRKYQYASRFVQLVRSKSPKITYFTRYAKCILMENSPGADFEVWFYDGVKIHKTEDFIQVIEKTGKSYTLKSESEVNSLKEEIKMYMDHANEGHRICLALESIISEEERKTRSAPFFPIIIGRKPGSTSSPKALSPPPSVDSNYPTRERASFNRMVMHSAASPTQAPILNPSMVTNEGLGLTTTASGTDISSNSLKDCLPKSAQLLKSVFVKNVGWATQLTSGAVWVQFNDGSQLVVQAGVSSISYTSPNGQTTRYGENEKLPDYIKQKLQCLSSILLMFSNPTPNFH
human recombinant Aurora A, sequence (O14965 whole entry): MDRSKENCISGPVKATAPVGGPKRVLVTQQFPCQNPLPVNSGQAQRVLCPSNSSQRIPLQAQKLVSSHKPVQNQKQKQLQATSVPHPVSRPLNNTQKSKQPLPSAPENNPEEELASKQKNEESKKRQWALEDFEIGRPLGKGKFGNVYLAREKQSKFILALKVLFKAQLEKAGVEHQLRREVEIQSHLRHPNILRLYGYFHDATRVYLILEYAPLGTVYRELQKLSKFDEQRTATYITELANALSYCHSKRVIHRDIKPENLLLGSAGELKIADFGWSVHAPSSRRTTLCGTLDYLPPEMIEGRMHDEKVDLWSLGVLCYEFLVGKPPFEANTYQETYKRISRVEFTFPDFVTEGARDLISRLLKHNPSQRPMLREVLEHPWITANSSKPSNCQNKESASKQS

- IC50 (human recombinant PLK4): 8.66 nM
- [Aurora A IC50 (nM)]/[PLK4 IC50 (nM)] [1]: 531.9935
- [Aurora B IC50 (nM)]/[PLK4 IC50 (nM)] [2]: 218.4107
Compound: COc1ccc2c(c1)[C@]1(C[C@H]1c1ccc3c(Nc4nc(C)nc5c4C(C)SC5)n[nH]c3c1)C(=O)N2 (single isomer, unassigned) [Example 211]

- IC50 (human recombinant PLK4): 36 nM
- [Aurora A IC50 (nM)]/[PLK4 IC50 (nM)] [1]: 74.16
- [Aurora B IC50 (nM)]/[PLK4 IC50 (nM)] [2]: 3.866
Compound: COc1ccc2c(c1)[C@]1(C[C@H]1c1ccc3c(Nc4cc(OC)ncn4)n[nH]c3c1)C(=O)N2 [Example 14, (1R,2S)-5′-methoxy-2-{3-[(6-methoxypyrimidin-4-yl)amino]-1H-indazol-6-yl}spiro[cyclopropane-1,3′-indol]-2′(1′H)-one]

- IC50 (human recombinant PLK4): 2.2 nM
- [Aurora A IC50 (nM)]/[PLK4 IC50 (nM)] [1]: 1120.5641
- [Aurora B IC50 (nM)]/[PLK4 IC50 (nM)] [2]: 1049.1355
Compound: CCOc1cc(=O)n(C)nc1Nc1n[nH]c2cc([C@@H]3C[C@@]34C(=O)Nc3ccc(OC)cc34)ccc12 [Example 277, (1R,2S)-2-{3-[(4-ethoxy-1-methyl-6-oxo-1,6-dihydropyridazin-3-yl)amino]-1H-indazol-6-yl}-5′-methoxyspiro[cyclopropane-1,3′-indol]-2′(1′H)-one]

- IC50 (human recombinant PLK4): 61.7 nM
- [Aurora A IC50 (nM)]/[PLK4 IC50 (nM)] [1]: 361.809
- [Aurora B IC50 (nM)]/[PLK4 IC50 (nM)] [2]: 27.4923
Compound: COc1ccc2c(c1)[C@]1(C[C@H]1c1ccc3c(Nc4cn(CCO)nc4OC)n[nH]c3c1)C(=O)N2 [Example 50, (1R,2S)-2-(3-{[1-(2-hydroxyethyl)-3-methoxy-1H-pyrazol-4-yl]amino}-1H-indazol-6-yl)-S′-methoxyspiro[cyclopropane-1,3′-indol]-2′(1′H)-one]

- IC50 (human recombinant PLK4): 8.59 nM
- [Aurora A IC50 (nM)]/[PLK4 IC50 (nM)] [1]: 704.9238
- [Aurora B IC50 (nM)]/[PLK4 IC50 (nM)] [2]: 51.7286
Compound: COc1ccc2c(c1)[C@]1(C[C@H]1c1ccc3c(Nc4ncc(C(F)(F)F)cc4OC)n[nH]c3c1)C(=O)N2 [Example 158, (1R,2S)-5′-methoxy-2-(3-{[3-methoxy-5-(trifluoromethyl)pyridin-2-yl]amino}-1H-indazol-6-yl)spiro[cyclopropane-1,3′-indol]-2′(1′H)-one]

- IC50 (human recombinant PLK4): 0.952 nM
- [Aurora A IC50 (nM)]/[PLK4 IC50 (nM)] [1]: 497.3739
- [Aurora B IC50 (nM)]/[PLK4 IC50 (nM)] [2]: 111.6597
Compound: COc1ccc2c(c1)[C@]1(C[C@H]1c1ccc3c(Nc4cc(F)c(C(=O)N5CCOCC5)cc4OC)n[nH]c3c1)C(=O)N2 [Example 207, (1R,2S)-2-{3-[5-fluoro-2-methoxy-4-(morpholine-4-carbonyl)anilino]-1H-indazol-6-yl}-5′-methoxyspiro[cyclopropane-1,3′-indol]-2′(1′H)-one]

- IC50 (human recombinant PLK4): 29.3 nM
- [Aurora A IC50 (nM)]/[PLK4 IC50 (nM)] [1]: 318.03
- [Aurora B IC50 (nM)]/[PLK4 IC50 (nM)] [2]: 15.6544
Compound: COc1ccc2c(c1)[C@]1(C[C@H]1c1ccc3c(Nc4ncncc4C)n[nH]c3c1)C(=O)N2 (racemic) [Example 2, racemic-5′-Methoxy-2-{3-[(5-methylpyrimidin-4-yl)amino]-1H-indazol-6-yl)spiro[cydopropane-1,3′-indol]-2′(1′H)-one]

- IC50 (human recombinant PLK4): 3.31 nM
- [Aurora A IC50 (nM)]/[PLK4 IC50 (nM)] [1]: 293.0556
- [Aurora B IC50 (nM)]/[PLK4 IC50 (nM)] [2]: 37.14
Compound: COc1ccc2c(c1)[C@]1(C[C@H]1c1ccc3c(Nc4cc(C)nn4C)n[nH]c3c1)C(=O)N2 [Example 74]

- IC50 (human recombinant PLK4): 17.8 nM
- [Aurora A IC50 (nM)]/[PLK4 IC50 (nM)] [1]: 1505.334
- [Aurora B IC50 (nM)]/[PLK4 IC50 (nM)] [2]: 44.33
Compound: COc1ccc2c(c1)[C@]1(C[C@H]1c1ccc3c(Nc4nnccc4OC)n[nH]c3c1)C(=O)N2 [Example 90, (1R,2S)-5′-methoxy-2-{3-[(4-methozypyridazin-3-yl)amino]-1H-indazol-6-yl}spiro[cyclopropane-1,3′-indol]-2′(1′H)-one]

- IC50 (human recombinant PLK4): 6.19 nM
- [Aurora A IC50 (nM)]/[PLK4 IC50 (nM)] [1]: 819.6509
- [Aurora B IC50 (nM)]/[PLK4 IC50 (nM)] [2]: 110.6011
Compound: COc1ccc2c(c1)[C@]1(C[C@H]1c1ccc3c(Nc4ccc(C(=O)NC(CF)CF)nc4OC)n[nH]c3c1)C(=O)N2 [Example 250, N-(1,3-difluoropropan-2-yl)-6-methoxy-5-({6-[(1R,2S)-5′-methoxy-2′-oxo-1′,2′-dihydrospiro[cyclopropane-1,3′-indol]-2-yl]-1H-indazol-3-yl}amino)pyridine-2-carboxamide]

Further lines, the compound ahead of its results:

Compound: COc1ccc2c(c1)[C@]1(C[C@H]1c1ccc3c(Nc4cccc5c4OCC5)n[nH]c3c1)C(=O)N2 [Example 16, (1R,2S)-2-{3-[(2,3-dihydro-1-benzofuran-7-yl)amino]-1H-indazol-6-yl}-5′-methoxyspiro[cyclopropane-1,3′-indol]-2′(1′H)-one]
- IC50 (human recombinant PLK4): 2.18 nM
- [Aurora A IC50 (nM)]/[PLK4 IC50 (nM)] [1]: 605.6855
- [Aurora B IC50 (nM)]/[PLK4 IC50 (nM)] [2]: 11.76

Compound: COc1ccc2c(c1)[C@]1(C[C@H]1c1ccc3c(Nc4cnn5c4OCC5)n[nH]c3c1)C(=O)N2 [Example 30, (1R,2S)-2-{3-[(2,3-dihydropyrazolo[5,1-b][1,3]oxazol-7-yl)amino]-1H-indazol-6-yl}-5′-methoxyspiro[cyclopropane-1,3′-indol]-2′(1′H)-one]
- IC50 (human recombinant PLK4): 31.2 nM
- [Aurora A IC50 (nM)]/[PLK4 IC50 (nM)] [1]: 36.2
- [Aurora B IC50 (nM)]/[PLK4 IC50 (nM)] [2]: 6.188

Compound: COc1ccc2c(c1)[C@]1(C[C@H]1c1ccc3c(Nc4nc(C(C)(C)O)ccc4OC)n[nH]c3c1)C(=O)N2 [Example 278, (1R,2S)-2-(3-{[6-(2-hydroxypropan-2-yl)-3-methoxypyridin-2-yl]amino}-1H-indazol-6-yl)-5′-methoxy-1′H-spiro[cyclopropane-1,3′-indol]-2′-one]
- IC50 (human recombinant PLK4): 0.804 nM
- [Aurora A IC50 (nM)]/[PLK4 IC50 (nM)] [1]: 1269.9004
- [Aurora B IC50 (nM)]/[PLK4 IC50 (nM)] [2]: 423.6318

Compound: COc1ccc2c(c1)[C@]1(C[C@H]1c1ccc3c(Nc4ncnc(N5CCC5)c4OC)n[nH]c3c1)C(=O)N2 [Example 42, (1R,2S)-2-(3-{[6-(azetidin-1-yl)-5-methoxypyrimidin-4-yl]amino}-1H-indazol-6-yl)-5′-methoxyspiro[cyclopropane-1,3′-indol]-2′(1′H)-one]
- IC50 (human recombinant PLK4): 36.2 nM
- [Aurora A IC50 (nM)]/[PLK4 IC50 (nM)] [1]: 1053.808
- [Aurora B IC50 (nM)]/[PLK4 IC50 (nM)] [2]: 42.3

Compound: COc1ccc2c(c1)[C@]1(C[C@H]1c1ccc3c(Nc4ncc(CCO)nc4OC)n[nH]c3c1)C(=O)N2 [Example 55, (lR,2S)-2-(3-{[5-(2-hydroxyethyl)-3-methoxypyrazin-2-yl]amino}-1H-indazol-6-yl)-5′-methozyspiro[cyclopropano-1,3′-indol]-2′(1′H)-one]
- IC50 (human recombinant PLK4): 1.25 nM
- [Aurora A IC50 (nM)]/[PLK4 IC50 (nM)] [1]: 3251.804
- [Aurora B IC50 (nM)]/[PLK4 IC50 (nM)] [2]: 17.9

Compound: CCc1cnc(C)nc1Nc1n[nH]c2cc([C@@H]3C[C@@]34C(=O)Nc3ccc(OC)cc34)ccc12 [Example 152, (1R,2S)-2-{3-[(5-ethyl-2-methylpyrimidin-4-yl)amino]-1H-indazol-6-yl}-5′-methoxyspiro[cyclopropane-1,3′-indol]-2′(1′H)-one]
- IC50 (human recombinant PLK4): 7.16 nM
- [Aurora A IC50 (nM)]/[PLK4 IC50 (nM)] [1]: 502.7949
- [Aurora B IC50 (nM)]/[PLK4 IC50 (nM)] [2]: 107.8116

Compound: COc1ccc2c(c1)[C@]1(C[C@H]1c1ccc3c(Nc4nc(Cl)c(OC)c(N5CCOCC5)n4)n[nH]c3c1)C(=O)N2 [Example 49, (1R,2S)-2-(3-{[4-chloro-5-methoxy-6-(morpholin-4-yl)pyrimidin-2-yl]amino}-1H-indazol-6-yl)-5′-metboxyspiro[cydopropane-1,3′-indol]-2′(1′H)-one]
- IC50 (human recombinant PLK4): 19.1 nM
- [Aurora A IC50 (nM)]/[PLK4 IC50 (nM)] [1]: 253.4031
- [Aurora B IC50 (nM)]/[PLK4 IC50 (nM)] [2]: 53.19

Compound: COc1ccc2c(c1)[C@]1(C[C@H]1c1ccc3c(Nc4cc(N5CCCOCC5)ncn4)n[nH]c3c1)C(=O)N2 [Example 40, (1R,2S)-5′-methoxy-2-(3-{[6-(1,4-oxazepan-4-yl)pyrimidin-4-yl]amino}-1H-indazol-6-yl)spiro[cyclopropane-1,3′-indol]-2′(1′H)-one]
- IC50 (human recombinant PLK4): 15.2 nM
- [Aurora A IC50 (nM)]/[PLK4 IC50 (nM)] [1]: 67.06
- [Aurora B IC50 (nM)]/[PLK4 IC50 (nM)] [2]: 2.783

Compound: COc1cnc(C)nc1Nc1n[nH]c2cc([C@@H]3C[C@@]34C(=O)Nc3ccccc34)ccc12 [Example 124, (1R,2S)-2-{3-[(5-methoxy-2-methylpyrimidin-4-yl)amino]-1H-indazol-6-yl}spiro[cyclopropane-1,3′-indol]-2′(1′H)-one]
- IC50 (human recombinant PLK4): 13.6 nM
- [Aurora A IC50 (nM)]/[PLK4 IC50 (nM)] [1]: 38.03
- [Aurora B IC50 (nM)]/[PLK4 IC50 (nM)] [2]: 35.9

Compound: COc1ccc2c(c1)[C@]1(C[C@H]1c1ccc3c(Nc4cc(N5CCS(=O)(=O)CC5)nc(C)n4)n[nH]c3c1)C(=O)N2 [Example 60, (1R,2S)-2-(3-((6-(1,1-dioxidothiomorpholino)-2-methylpyrimidin-4-yl)amino)-1H-indazol-6-yl)-5′-methoxyspiro[cyclopropane-1,3′-indolin]-2′-one]
- IC50 (human recombinant PLK4): 7.36 nM
- [Aurora A IC50 (nM)]/[PLK4 IC50 (nM)] [1]: 69.69
- [Aurora B IC50 (nM)]/[PLK4 IC50 (nM)] [2]: 7.855

Compound: COc1ccc2c(c1)[C@]1(C[C@H]1c1ccc3c(Nc4nc(N5CCOCC5)ncc4Cl)n[nH]c3c1)C(=O)N2 [Example 103, (1R,2S)-2-(3-{[5-chloro-2-(morpholin-4-yl)pyrimidin-4-yl]amino}-1H-indazol-6-yl)-5′-methozyspiro[cyclopropano-1,3′-indol]-2′(1′H)-one]
- IC50 (human recombinant PLK4): 2.8 nM
- [Aurora A IC50 (nM)]/[PLK4 IC50 (nM)] [1]: 416.6667
- [Aurora B IC50 (nM)]/[PLK4 IC50 (nM)] [2]: 977.1102

Compound: COc1cnc(C)nc1Nc1n[nH]c2cc([C@@H]3C[C@]34C(=O)Nc3ccc(OC(F)(F)F)cc34)ccc12 [Example 139, (1S,2S)-2-{3-[(5-methoxy-2-methylpyrimidin-4-yl)amino]-1H-indazol-6-yl}-5′-(trifluoromethoxy)spiro[cyclopropane-1,3′-indol]-2′(1′H)-one]
- IC50 (human recombinant PLK4): 3180 nM
- [Aurora A IC50 (nM)]/[PLK4 IC50 (nM)] [1]: 7.4
- [Aurora B IC50 (nM)]/[PLK4 IC50 (nM)] [2]: 9.6
